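The compound was tested at five concentrations on cells cultured in 96-well plates, with a 48-hour exposure period. Here, GI50 denotes the concentration required for 50% inhibition of growth.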 The source made the active and inactive calls. Rule as the data show it: active = GI50 up to about 1.1 µM and inactive = higher.
Assays:
Assay in all cases: DTP human tumour cell line panel, 48 h
SK-OV-3 = system: SK-OV-3
KM12 = system: KM12
T47D = system: T47D
BT-549 = system: BT-549
SN12C = system: SN12C
SNB-19 = system: SNB-19
EKVX = system: EKVX
A498 = system: A498
TK-10 = system: TK-10
Hs-578T = system: Hs-578T
MDA-MB-435 = system: MDA-MB-435
SK-MEL-5 = system: SK-MEL-5
K562 = system: K562
CAKI-1 = system: CAKI-1
HOP-92 = system: HOP-92
MDA-N = system: MDA-N
UO-31 = system: UO-31
ACHN = system: ACHN
IGROV-1 = system: IGROV-1
NCI-H460 = system: NCI-H460
HCT-15 = system: HCT-15
Malme-3M = system: Malme-3M
A549 = system: A549
HL-60 = system: HL-60
HT-29 = system: HT-29
UACC-257 = system: UACC-257
LOX IMVI = system: LOX IMVI
MCF7 = system: MCF7
HOP-62 = system: HOP-62
SNB-75 = system: SNB-75
OVCAR-8 = system: OVCAR-8
SF-295 = system: SF-295
SF-268 = system: SF-268
MDA-MB-231 = system: MDA-MB-231
PC-3 = system: PC-3
NCI/ADR-RES = system: NCI/ADR-RES
NCI-H226 = system: NCI-H226
SF-539 = system: SF-539
DU-145 = system: DU-145
COLO 205 = system: COLO 205
SK-MEL-2 = system: SK-MEL-2
OVCAR-4 = system: OVCAR-4
786-0 = system: 786-0
RPMI-8226 = system: RPMI-8226
OVCAR-3 = system: OVCAR-3
MOLT-4 = system: MOLT-4
HCC 2998 = system: HCC 2998
CCRF-CEM = system: CCRF-CEM
SW-620 = system: SW-620
SK-MEL-28 = system: SK-MEL-28
UACC-62 = system: UACC-62
M14 = system: M14
HCT-116 = system: HCT-116
OVCAR-5 = system: OVCAR-5
U-251 = system: U-251
RXF 393 = system: RXF 393
NCI-H522 = system: NCI-H522
NCI-H23 = system: NCI-H23
SR = system: SR

Measured: GI50

CC(C)(C)c1ccc(OCC(=O)O)c(Cl)c1
> 100 µM: HCT-15
inactive: SK-OV-3 > 100 µM | KM12 > 100 µM | T47D > 100 µM | BT-549 > 100 µM | SN12C > 100 µM | SNB-19 > 100 µM | EKVX > 100 µM | A498 > 100 µM | TK-10 > 100 µM | Hs-578T > 100 µM | MDA-MB-435 > 100 µM | SK-MEL-5 > 100 µM | K562 > 100 µM | CAKI-1 > 100 µM | HOP-92 > 100 µM | MDA-N > 100 µM | UO-31 > 100 µM | ACHN > 100 µM | IGROV-1 > 100 µM | NCI-H460 > 100 µM | Malme-3M > 100 µM | A549 > 100 µM | HL-60 > 100 µM | HT-29 > 100 µM | UACC-257 > 100 µM | LOX IMVI > 100 µM | MCF7 > 100 µM | HOP-62 > 100 µM | SNB-75 > 100 µM | OVCAR-8 > 100 µM | SF-295 > 100 µM | SF-268 > 100 µM | MDA-MB-231 > 100 µM | PC-3 > 100 µM | NCI/ADR-RES > 100 µM | NCI-H226 > 100 µM | SF-539 > 100 µM | DU-145 > 100 µM | COLO 205 > 100 µM | SK-MEL-2 > 100 µM | OVCAR-4 > 100 µM | 786-0 > 100 µM | RPMI-8226 > 100 µM | OVCAR-3 60.4 µM | MOLT-4 > 100 µM | HCC 2998 > 100 µM | CCRF-CEM > 100 µM | SW-620 > 100 µM | SK-MEL-28 > 100 µM | UACC-62 > 100 µM | M14 > 100 µM | HCT-116 > 100 µM | OVCAR-5 > 100 µM | U-251 > 100 µM | RXF 393 > 100 µM | NCI-H522 > 100 µM | NCI-H23 > 100 µM

C[C@]12CC[C@H](O)C=C1CC[C@@H]1[C@@H]2CC[C@]2(C)C(=N/O)/C(=C/c3ccncc3)C[C@@H]12
inactive: SK-OV-3 15.6 µM | KM12 8 µM | T47D 5.38 µM | BT-549 20 µM | SN12C 12.1 µM | SNB-19 11.9 µM | EKVX 16.4 µM | TK-10 12.4 µM | Hs-578T 19.4 µM | MDA-MB-435 11.1 µM | SK-MEL-5 5.01 µM | K562 5.13 µM | CAKI-1 14.9 µM | HOP-92 7.48 µM | MDA-N 9.51 µM | UO-31 3.68 µM | ACHN 8.43 µM | IGROV-1 14.8 µM | NCI-H460 6.1 µM | Malme-3M 17.5 µM | A549 5.19 µM | HT-29 4.04 µM | UACC-257 7.67 µM | LOX IMVI 11.5 µM | MCF7 3.87 µM | HOP-62 13.2 µM | SNB-75 14.4 µM | OVCAR-8 16 µM | SF-295 12.2 µM | SF-268 15.2 µM | SR 3.4 µM | MDA-MB-231 11.1 µM | PC-3 2.65 µM | NCI/ADR-RES 17.5 µM | NCI-H226 10.2 µM | SF-539 5.53 µM | DU-145 6.34 µM | COLO 205 11.7 µM | SK-MEL-2 10.3 µM | OVCAR-4 10.1 µM | 786-0 12.9 µM | RPMI-8226 3.78 µM | OVCAR-3 5.53 µM | MOLT-4 4.43 µM | HCC 2998 3.84 µM | CCRF-CEM 7.96 µM | SW-620 23 µM | SK-MEL-28 19.7 µM | UACC-62 5.98 µM | M14 5.7 µM | HCT-116 5 µM | OVCAR-5 19.2 µM | U-251 6.64 µM | RXF 393 5.87 µM | NCI-H522 9.35 µM | NCI-H23 16.1 µM
active: HL-60 < 0.01 µM
5.19 µM: HCT-15
